Assay results: patent US20230013925A1, “Moraxella Treatment Using Cannabinoids” (BOTANIX PHARMACEUTICALLS LIMITED, priority 2019, published 2023)
Values after ≈ are worked out from the molar mass of the structure shown. Like-named read-outs stand apart in the source and are kept apart here.

System: Moraxella catarrhalis
Assay: Broth microdilution MIC testing (CLSI)
Format: cell-based
Conditions: for MIC: read-out: MIC (lowest concentration of drug that inhibited visible growth)
Procedure: In this study, to evaluate the spectrum of activity, cannabidiol (CBD) was profiled against Moraxella. Testing was conducted following guidelines recommended by the Clinical and Laboratory Standards Institute (CLSI, 1-4), using vancomycin, meropenem, levofloxacin, and gentamicin as comparators for testing aerobic bacteria.
Test agents were supplied by Micromyx. Stock solutions of all compounds were prepared on the first day of testing at 101× the highest test concentration using solvents recommended by CLSI. CBD was prepared fresh on each of testing.
Prior to testing, Moraxella were streaked from frozen vials onto Trypticase Soy Agar (TSA) with 5% sheep blood (Becton Dickinson [BD]; Sparks, Md.; Lot No. 9192895), and incubated at 35° C. overnight.
Cation-adjusted Mueller-Hinton broth (CAMHB; BD; Lot No. 8190586) was used for MIC testing.
MIC values were determined using a broth microdilution procedure described by CLSI (1-4). Automated liquid handlers (Multidrop 384, Labsystems, Helsinki, Finland; Biomek 2000 and Biomek FX, Beckman Coulter, Fullerton, Calif.) were used to conduct serial dilutions and liquid transfers.
To prepare the drug mother plates, which would provide the serial drug dilutions for the replicate daughter plates, the wells of columns 2 through 12 of standard 96-well microdilution plates (Costar 3795) were filled with 150 μl of the designated diluent for each row of drug. The test article and comparator compounds (300 μl at 101× the highest concentration to be tested) were dispensed into the appropriate wells in column 1. The Biomek 2000 was then used to make 2-fold serial dilutions in the mother plates from column 1 through column 11. The wells of column 12 contained no drug and served as the organism growth control wells for the assay.
The daughter plates were loaded with 190 μL per well of the appropriate test medium for the tested organism using the Multidrop 384. The daughter plates were completed on the Biomek FX instrument which transferred 2 μL of drug solution from each well of a mother plate to the corresponding well of each daughter plate in a single step.
A standardized inoculum of each test organism was prepared per CLSI methods (1-4). The inoculum for each organism was dispensed into sterile reservoirs divided by length (Beckman Coulter), and the Biomek 2000 was used to inoculate the plates. Daughter plates were placed on the Biomek 2000 work surface in reverse orientation so that inoculation took place from low to high drug concentration. Plates were inoculated with 10 μL of the inoculum resulting in a final cell density of approximately 5×10^5 CFU/mL per well.
The plates for testing of Moraxella were stacked 3 to 4 high, covered with a sterile lid, and incubated at 35° C. for the time periods specified in CLSI (1-4). Plates were incubated for approximately 16 to 20 hr. Following incubation, the microplates were removed from the incubator and viewed from the bottom using a plate viewer. […] The MIC was read and recorded as the lowest concentration of drug that inhibited visible growth of the organism.

[1] = Moraxella catarrhalis isolate MMX 3782, CAMHB, 35° C., approximately 16 to 20 hr

## C[C@H]1COc2c(N3CCN(C)CC3)c(F)cc3c(=O)c(C(=O)O)cn1c23 [LVX, levofloxacin]
[1]
  MIC: 0.03 µg/mL (≈ 0.083 µM)

## gentamicin
[1]
  MIC (lowest concentration of drug that inhibited visible growth): 0.25 µg/mL

## C[C@@H](O)[C@H]1C(=O)N2C(C(=O)O)=C(S[C@@H]3CN[C@H](C(=O)N(C)C)C3)[C@H](C)[C@H]12 [MEM, meropenem]
[1]
  MIC: ≤ 0.03 µg/mL

## CN[C@H](CC(C)C)C(=O)N[C@H]1C(=O)N[C@@H](CC(N)=O)C(=O)N[C@H]2C(=O)N[C@H]3C(=O)N[C@H](C(=O)N[C@H](C(=O)O)c4cc(O)cc(O)c4-c4cc3ccc4O)[C@H](O)c3ccc(c(Cl)c3)Oc3cc2cc(c3O[C@@H]2O[C@H](CO)[C@@H](O)[C@H](O)[C@H]2O[C@H]2C[C@](C)(N)[C@H](O)[C@H](C)O2)Oc2ccc(cc2Cl)[C@H]1O [VAN, vancomycin]
Moraxella catarrhalis
  MIC: 32 µg/mL (≈ 22.1 µM)

## C=C(C)C1CCC(C)=CC1c1c(O)cc(CCCCC)cc1O (centres unmarked) [CBD, 2-[3-methyl-6-(1-methylethenyl)-2-cyclohexen-1-yl]-5-pentyl-1,3-benzenediol]
[1]
  MIC: 1 µg/mL (≈ 3.18 µM)
